Test results: patent publication US10071105B2, “Formulations of deoxycholic acid and salts thereof” (Kythera Biopharmaceuticals, Inc., priority 2009, dated 2018)

Assay: Reverse phase HPLC, degradation products (purity), stability study
Format: physicochemical
Details: storage two months (eight weeks) at 4° C., 25° C. and 37° C.
Method: Reverse phase HPLC was used along with visual observations which were conducted at each time point to monitor any precipitation or cloudiness.
The formulations were incubated at 4° C., 25° C. and 37° C. and analyzed for a) degradation products, b) pH stability and c) formulation clarity.
Reverse phase HPLC was used to visualize degradation products.

## C[C@H](CCC(=O)[O-])[C@H]1CCC2C3CC[C@@H]4C[C@H](O)CC[C@]4(C)C3C[C@H](O)[C@@]21C.[Na+] (stereo partly drawn) [sodium deoxycholate, sodium (4R)-4-((3R,5R,10S,12S,13R,17R)-3,12-dihydroxy-10,13-dimethylhexadecahydro-1H-cyclopenta[a]phenanthren-17-yl)pentanoate]
  chemical degradation by reverse phase HPLC: no degradation
